Test results: PubChem BioAssay AID1963850 (Molecular Pharmacology Branch, DTP, NCI, 2024)

System: 192522-019-R-J2-PDC complex tumor spheroid viability
Test: Anticancer human tumor 192522-019-R-J2-PDC patient-derived colon adenocarcinoma cell line growth inhibition [POLQ]
Conditions: for IC50: curve of first compound; for viability, T/C: stronger effect = lower value
Summary of the method: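 Complex spheroid viability model combining PDC tumour cells with endothelial (HUVEC) and MSC stromal cells. Novobiocin, ART-558 or RP6685 were tested singly and in combination with standard and investigational anticancer drugs. Each was titrated in half-log steps from near clinical Cmax, or from 10 microM where Cmax was unknown.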

[1] = second compound 0.0316 µM, first compound 0.0316 µM
[2] = second compound 0.0316 µM, first compound 0.1 µM
[3] = second compound 0.0316 µM, first compound 0.316 µM
[4] = second compound 0.0316 µM, first compound 1 µM
[5] = second compound 0.0316 µM, first compound 3.16 µM
[6] = second compound 0.0316 µM, first compound 10 µM
[7] = second compound 0.1 µM, first compound 0.0316 µM
[8] = second compound 0.1 µM, first compound 0.1 µM
[9] = second compound 0.1 µM, first compound 0.316 µM
[10] = second compound 0.1 µM, first compound 1 µM
[11] = second compound 0.1 µM, first compound 3.16 µM
[12] = second compound 0.1 µM, first compound 10 µM
[13] = second compound 0.316 µM, first compound 0.0316 µM
[14] = second compound 0.316 µM, first compound 0.1 µM
[15] = second compound 0.316 µM, first compound 0.316 µM
[16] = second compound 0.316 µM, first compound 1 µM
[17] = second compound 0.316 µM, first compound 3.16 µM
[18] = second compound 0.316 µM, first compound 10 µM
[19] = second compound 1 µM, first compound 0.0316 µM
[20] = second compound 1 µM, first compound 0.1 µM
[21] = second compound 1 µM, first compound 0.316 µM
[22] = second compound 1 µM, first compound 1 µM
[23] = second compound 1 µM, first compound 3.16 µM
[24] = second compound 1 µM, first compound 10 µM
[25] = second compound 3.16 µM, first compound 0.0316 µM
[26] = second compound 3.16 µM, first compound 0.1 µM
[27] = second compound 3.16 µM, first compound 0.316 µM
[28] = second compound 3.16 µM, first compound 1 µM
[29] = second compound 3.16 µM, first compound 3.16 µM
[30] = second compound 3.16 µM, first compound 10 µM
[31] = second compound 10 µM, first compound 0.0316 µM
[32] = second compound 10 µM, first compound 0.1 µM
[33] = second compound 10 µM, first compound 0.316 µM
[34] = second compound 10 µM, first compound 1 µM
[35] = second compound 10 µM, first compound 3.16 µM
[36] = second compound 10 µM, first compound 10 µM
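Also: spheroids exposed to drugs for seven days before reading.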
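For viability, T/C in this document: 100% = DMSO vehicle control viability in luminescence.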

`C=CC(=O)N1CCN(c2nc(=O)n(-c3c(C)ccnc3C(C)C)c3nc(-c4c(O)cccc4F)c(F)cc23)C(C)C1` (stereo unspecified) + Cc1cccc(N(C)C(=O)C2C(O)CCN2c2nc(C)cc(C(F)(F)F)c2C#N)c1 was tested, and the IC50 (second compound 0.0316 µM) was greater than 10000 nM, the IC50 (second compound 0.1 µM) was greater than 10000 nM and the IC50 (second compound 0.316 µM) was greater than 10000 nM. It also gave an IC50 (second compound 1 µM) greater than 10000 nM, an IC50 (second compound 3.16 µM) greater than 10000 nM and an IC50 (second compound 10 µM) greater than 10000 nM. For the same molecule, the viability, T/C [1] was 114%, the viability, T/C [2] was 85% and the viability, T/C [3] was 101%. It also gave a viability, T/C [4] of 93.8%, a viability, T/C [5] of 109% and a viability, T/C [6] of 97.9%. The viability, T/C [7] was 106%, the viability, T/C [8] was 91.4% and the viability, T/C [9] was 98.8%. For the same molecule, the viability, T/C [10] was 103%, the viability, T/C [11] was 100% and the viability, T/C [12] was 110%. It also gave a viability, T/C [13] of 95.2%, a viability, T/C [14] of 96.9% and a viability, T/C [15] of 100%. The viability, T/C [16] was 105%, the viability, T/C [17] was 101% and the viability, T/C [18] was 103%. It also gave a viability, T/C [19] of 102%, a viability, T/C [20] of 105% and a viability, T/C [21] of 109%. For the same molecule, the viability, T/C [22] was 106%, the viability, T/C [23] was 102% and the viability, T/C [24] was 110%. The viability, T/C [25] was 102%, the viability, T/C [26] was 96.5% and the viability, T/C [27] was 108%. It also gave a viability, T/C [28] of 98%, a viability, T/C [29] of 106% and a viability, T/C [30] of 113%. It also gave a viability, T/C [31] of 107%, a viability, T/C [32] of 101% and a viability, T/C [33] of 107%. For the same molecule, the viability, T/C [34] was 113%, the viability, T/C [35] was 114% and the viability, T/C [36] was 107%.

With `CC1COCCN1c1cc(C2(O)CC3CCC(C2)O3)c2cnn(-c3ccn[nH]3)c2n1` (stereo unspecified) + Nc1ccc(C#CCN(C(=O)Cc2ncc(C(F)(F)F)cc2C(F)(F)F)c2ccc(F)cc2)nn1 the IC50 (second compound 0.0316 µM) was 259 nM, the IC50 (second compound 0.1 µM) was 265 nM and the IC50 (second compound 0.316 µM) was 263 nM. The IC50 (second compound 1 µM) was 276 nM, the IC50 (second compound 3.16 µM) was 331 nM and the IC50 (second compound 10 µM) was 284 nM. The viability, T/C [1] was 95.5%, the viability, T/C [2] was 76.8% and the viability, T/C [3] was 44.7%. The viability, T/C [4] was 34.4%, the viability, T/C [5] was 44% and the viability, T/C [6] was 50.1%. The viability, T/C [7] was 99.2%, the viability, T/C [8] was 85.3% and the viability, T/C [9] was 42.2%. For the same molecule, the viability, T/C [10] was 37.6%, the viability, T/C [11] was 41.3% and the viability, T/C [12] was 53%. For the same molecule, the viability, T/C [13] was 97.2%, the viability, T/C [14] was 80.5% and the viability, T/C [15] was 44.3%. It also gave a viability, T/C [16] of 35.8%, a viability, T/C [17] of 44.7% and a viability, T/C [18] of 48.6%. For the same molecule, the viability, T/C [19] was 97.1%, the viability, T/C [20] was 81.8% and the viability, T/C [21] was 45.9%. It also gave a viability, T/C [22] of 36.9%, a viability, T/C [23] of 45.1% and a viability, T/C [24] of 51.8%. For the same molecule, the viability, T/C [25] was 97.6%, the viability, T/C [26] was 82.3% and the viability, T/C [27] was 51.2%. For the same molecule, the viability, T/C [28] was 36.6%, the viability, T/C [29] was 46.6% and the viability, T/C [30] was 49.6%. For the same molecule, the viability, T/C [31] was 92.4%, the viability, T/C [32] was 74.8% and the viability, T/C [33] was 47.8%. For the same molecule, the viability, T/C [34] was 36.4%, the viability, T/C [35] was 51.9% and the viability, T/C [36] was 50%.

For `Cn1ncnc1[C@H]1c2n[nH]c(=O)c3cc(F)cc(c23)N[C@@H]1c1ccc(F)cc1` + Cc1cccc(N(C)C(=O)C2C(O)CCN2c2nc(C)cc(C(F)(F)F)c2C#N)c1, the IC50 (second compound 0.0316 µM) was greater than 100 nM, the IC50 (second compound 0.1 µM) was greater than 100 nM and the IC50 (second compound 0.316 µM) was greater than 100 nM. It also gave an IC50 (second compound 1 µM) greater than 100 nM, an IC50 (second compound 3.16 µM) greater than 100 nM and an IC50 (second compound 10 µM) greater than 100 nM. For the same molecule, the viability, T/C (second compound 0.0316 µM, first compound 0.000316 µM) was 109%, the viability, T/C (second compound 0.0316 µM, first compound 0.001 µM) was 96.1% and the viability, T/C (second compound 0.0316 µM, first compound 0.00316 µM) was 96.3%. For the same molecule, the viability, T/C (second compound 0.0316 µM, first compound 0.01 µM) was 103%, the viability, T/C [1] was 110% and the viability, T/C [2] was 88.6%. For the same molecule, the viability, T/C (second compound 0.1 µM, first compound 0.000316 µM) was 99.2%, the viability, T/C (second compound 0.1 µM, first compound 0.001 µM) was 96.3% and the viability, T/C (second compound 0.1 µM, first compound 0.00316 µM) was 105%. For the same molecule, the viability, T/C (second compound 0.1 µM, first compound 0.01 µM) was 101%, the viability, T/C [7] was 108% and the viability, T/C [8] was 101%. It also gave a viability, T/C (second compound 0.316 µM, first compound 0.000316 µM) of 111%, a viability, T/C (second compound 0.316 µM, first compound 0.001 µM) of 103% and a viability, T/C (second compound 0.316 µM, first compound 0.00316 µM) of 114%. The viability, T/C (second compound 0.316 µM, first compound 0.01 µM) was 105%, the viability, T/C [13] was 103% and the viability, T/C [14] was 102%. For the same molecule, the viability, T/C (second compound 1 µM, first compound 0.000316 µM) was 110%, the viability, T/C (second compound 1 µM, first compound 0.001 µM) was 108% and the viability, T/C (second compound 1 µM, first compound 0.00316 µM) was 109%. The viability, T/C (second compound 1 µM, first compound 0.01 µM) was 103%, the viability, T/C [19] was 100% and the viability, T/C [20] was 95.3%. It also gave a viability, T/C (second compound 3.16 µM, first compound 0.000316 µM) of 125%, a viability, T/C (second compound 3.16 µM, first compound 0.001 µM) of 106% and a viability, T/C (second compound 3.16 µM, first compound 0.00316 µM) of 112%. The viability, T/C (second compound 3.16 µM, first compound 0.01 µM) was 101%, the viability, T/C [25] was 118% and the viability, T/C [26] was 96.9%. For the same molecule, the viability, T/C (second compound 10 µM, first compound 0.000316 µM) was 114%, the viability, T/C (second compound 10 µM, first compound 0.001 µM) was 103% and the viability, T/C (second compound 10 µM, first compound 0.00316 µM) was 119%. The viability, T/C (second compound 10 µM, first compound 0.01 µM) was 102%, the viability, T/C [31] was 111% and the viability, T/C [32] was 101%.
